For assay [1], the target named is T1, recombinant human JAK1 kinase domain protein (Residues 854-1154) (Homo sapiens, UniProt P23458).
T1 construct: human JAK1 kinase domain protein (Residues 854-1154); purchased Proteros Biostructures GmbH (Martinsried, Germany); host or cells: insect cells
The experiment in a line: JAK1 biochemical assay (LabChip mobility shift, Ki). Particulars: read-out: Biochem JAK1 Ki.

Assay [2] deals with IL-13-stimulated STAT6 phosphorylation in human lung bronchial epithelial BEAS-2B cell line. The experiment in a line: P-STAT6 BEAS-2B + IL-13 cell assay. The class given is cell-based. Particulars: BEAS2B cells, IL13 stimulation, read-out: Cellular JAK1 PSTAT6 BEAS2B + IL13. Put shortly:
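Phospho-STAT6 (Tyr641) was quantified in lysates by MSD electrochemiluminescence after human IL-13 challenge (250 ng/mL stock, 15 min, 37 °C). Before that, BEAS-2B cells cultured 48 h had 1 h compound exposure over 10 concentrations. Percent of control was fitted to a four-parameter logistic model to give IC50.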

Assay [3] addresses Recombinant human JAK2 kinase domain protein (Residues 812-1132) (Homo sapiens, UniProt O60674). The experiment in a line: JAK2 biochemical assay (LabChip mobility shift, Ki). Particulars: Biochem JAK2 Ki.

Here are results for twelve compounds from patent publication US12528812B2 (Genentech, Inc., priority 2020, dated 2026).

Where two headings read alike, the source gives them in different places.

A word on the Ki: it is the dissociation constant of the complex between target and ligand, obtained from inhibition or displacement.

Sequence of Recombinant human JAK2 kinase domain protein (Residues 812-1132) (O60674 812-1132): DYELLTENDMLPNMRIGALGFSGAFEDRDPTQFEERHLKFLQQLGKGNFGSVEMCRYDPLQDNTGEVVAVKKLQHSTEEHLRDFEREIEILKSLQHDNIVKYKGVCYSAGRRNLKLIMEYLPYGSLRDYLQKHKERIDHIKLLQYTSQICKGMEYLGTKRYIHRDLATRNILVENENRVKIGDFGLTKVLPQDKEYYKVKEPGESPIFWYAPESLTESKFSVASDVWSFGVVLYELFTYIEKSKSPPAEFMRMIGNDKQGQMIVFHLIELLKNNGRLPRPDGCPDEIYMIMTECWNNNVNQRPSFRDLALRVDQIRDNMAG
T1 sequence (P23458 854-1154): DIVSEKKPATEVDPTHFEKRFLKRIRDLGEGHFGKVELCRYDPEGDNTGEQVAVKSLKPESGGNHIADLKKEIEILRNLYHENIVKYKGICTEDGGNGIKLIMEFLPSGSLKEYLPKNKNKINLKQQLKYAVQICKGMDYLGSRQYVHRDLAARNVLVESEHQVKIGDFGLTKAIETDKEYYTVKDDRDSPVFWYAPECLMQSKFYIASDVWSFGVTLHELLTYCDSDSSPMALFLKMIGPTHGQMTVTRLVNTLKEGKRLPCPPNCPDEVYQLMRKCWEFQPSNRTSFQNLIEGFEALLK

In the case of `CN(C)CCN1CC(O)(Cn2cc(Oc3ccc(OC(F)F)c(-c4nn(C)cc4NC(=O)c4cnn5cccnc45)c3)cn2)C1` [Example 198, N-[3-[2-(difluoromethoxy)-5-[1-[[1-[2-(dimethylamino)ethyl]-3-hydroxy-azetidin-3-yl]methyl]pyrazol-4-yl]oxy-phenyl]-1-methyl-pyrazol-4-yl]pyrazolo[1,5-a]pyrimidine-3-carboxamide], the inhibition constant Ki was determined as 1.5 nM in assay [1] and 0.83 nM in assay [3]. The IC50 in assay [2] (Homo sapiens, BEAS-2B) is 1000 nM.
With `Cn1cc(NC(=O)c2cnn3cccnc23)c(-c2cc(Oc3cnn(CC4(O)CN5CCC4CC5)c3)ccc2OC(F)F)n1` (stereo not drawn) [Example 199, N-[3-[2-(difluoromethoxy)-5-[1-[(3-hydroxyquinuclidin-3-yl)methyl]pyrazol-4-yl]oxy-phenyl]-1-methyl-pyrazol-4-yl]pyrazolo[1,5-a]pyrimidine-3-carboxamide], the Ki in assay [1] stood at 0.88 nM; in assay [3] it was 0.43 nM. The IC50 in assay [2] turned out to be 130 nM.
Take `Cn1cc(NC(=O)c2cnn3cccnc23)c(-c2cc(Oc3cnn(CC4(O)CN5CCC4CC5)c3)ccc2OC(F)F)n1` (stereo not drawn) [Example 200, N-[3-[2-(difluoromethoxy)-5-[1-[(3-hydroxyquinuclidin-3-yl)methyl]pyrazol-4-yl]oxy-phenyl]-1-methyl-pyrazol-4-yl]pyrazolo[1,5-a]pyrimidine-3-carboxamide]: the Ki was 3.6 nM in assay [1] and 1.6 nM in assay [3]. The IC50 in assay [2] worked out at 780 nM.
With `Cn1cc(NC(=O)c2cnn3cccnc23)c(-c2cc(Oc3ccnnc3)ccc2OC(F)F)n1` [Example 202, N-[3-[2-(difluoromethoxy)-5-pyridazin-4-yloxy-phenyl]-1-methyl-pyrazol-4-yl]pyrazolo[1,5-a]pyrimidine-3-carboxamide], the Ki turned out to be 0.68 nM in assay [1] and 0.38 nM in assay [3]. The IC50 in assay [2] (Homo sapiens, BEAS-2B) is 26 nM.
On the same counts, the results for `CN1CCC(n2cc(Oc3ccc(OC(F)F)c(-c4nn(C)cc4NC(=O)c4cnn5cccnc45)c3)cn2)CC1` [Example 203, N-[3-[2-(difluoromethoxy)-5-[1-(1-methyl-4-piperidyl)pyrazol-4-yl]oxy-phenyl]-1-methyl-pyrazol-4-yl]pyrazolo[1,5-a]pyrimidine-3-carboxamide] are 2.5 nM, 2.3 nM and 75 nM.
Regarding `Cn1cc(NC(=O)c2cnn3cccnc23)c(-c2cc(Oc3cccnn3)ccc2OC(F)F)n1` [Example 204, N-[3-[2-(difluoromethoxy)-5-pyridazin-3-yloxy-phenyl]-1-methyl-pyrazol-4-yl]pyrazolo[1,5-a]pyrimidine-3-carboxamide], the Ki in assay [1] is 2.2 nM; in assay [3], 1.4 nM. The IC50 in assay [2] (Homo sapiens, BEAS-2B) came out at 56 nM.
Turning to `CN1CC(N(C)C(=O)c2cccc(Oc3ccc(OC(F)F)c(-c4nn(C)cc4NC(=O)c4cnn5cccnc45)c3)c2)C1` [Example 205, N-[3-[2-(difluoromethoxy)-5-[3-[methyl-(1-methylazetidin-3-yl)carbamoyl]phenoxy]phenyl]-1-methyl-pyrazol-4-yl]pyrazolo[1,5-a]pyrimidine-3-carboxamide], the Ki in assay [1] was found to be 0.74 nM; in assay [3], 0.79 nM. Further, the IC50 in assay [2] (Homo sapiens, BEAS-2B) stood at 40 nM.
The corresponding values for `CN(C)CCN(C)C(=O)c1cccc(Oc2ccc(OC(F)F)c(-c3nn(C)cc3NC(=O)c3cnn4cccnc34)c2)c1` [Example 206, N-[3-[2-(difluoromethoxy)-5-[3-[2-(dimethylamino)ethyl-methyl-carbamoyl]phenoxy]phenyl]-1-methyl-pyrazol-4-yl]pyrazolo[1,5-a]pyrimidine-3-carboxamide] are 0.89 nM, 0.88 nM and 45 nM.
On the same counts, the results for `CCN1CC(O)(Cn2cc(Oc3ccc(OC(F)F)c(-c4nn(C)cc4NC(=O)c4cnn5cccnc45)c3)cn2)C1` [Example 207, N-[3-[2-(difluoromethoxy)-5-[1-[(1-ethyl-3-hydroxy-azetidin-3-yl)methyl]pyrazol-4-yl]oxy-phenyl]-1-methyl-pyrazol-4-yl]pyrazolo[1,5-a]pyrimidine-3-carboxamide] are 0.73 nM, 0.53 nM and 33 nM.
The corresponding values for `CCn1cc(NC(=O)c2cnn3cccnc23)c(-c2cc(Oc3cnn(CC4(O)CN(C)C4)c3)ccc2OC(F)F)n1` [Example 208, N-[3-[2-(difluoromethoxy)-5-[1-[(3-hydroxy-1-methyl-azetidin-3-yl)methyl]pyrazol-4-yl]oxy-phenyl]-1-ethyl-pyrazol-4-yl]pyrazolo[1,5-a]pyrimidine-3-carboxamide] are 1.2 nM, 1.2 nM and 72 nM.
On to `CC(C)N1CCC(O)(Cn2cc(Oc3ccc(OC(F)F)c(-c4nn(C)cc4NC(=O)c4cnn5cccnc45)c3)cn2)CC1` [Example 209, N-[3-[2-(difluoromethoxy)-5-[1-[(4-hydroxy-1-isopropyl-4-piperidyl)methyl]pyrazol-4-yl]oxy-phenyl]-1-methyl-pyrazol-4-yl]pyrazolo[1,5-a]pyrimidine-3-carboxamide], for which the Ki in assay [1] was determined as 0.96 nM; in assay [3], 0.48 nM. For the same compound, the IC50 in assay [2] (Homo sapiens, BEAS-2B) came to 190 nM.
On the same counts, the results for `CCN1CCC(O)(Cn2cc(Oc3ccc(OC(F)F)c(-c4nn(C)cc4NC(=O)c4cnn5cccnc45)c3)cn2)CC1` [Example 212, N-[3-[2-(difluoromethoxy)-5-[1-[(1-ethyl-4-hydroxy-4-piperidyl)methyl]pyrazol-4-yl]oxy-phenyl]-1-methyl-pyrazol-4-yl]pyrazolo[1,5-a]pyrimidine-3-carboxamide] are 0.84 nM, 0.6 nM and 120 nM.
